Assay results: patent US9650339B2, “Inhibitors of histone demethylases” (Gilead Sciences, Inc., priority 2013, dated 2017)

Tested on: OPM-2 subcutaneous mouse xenograft model of multiple myeloma
Experiment: Inhibition of tumor growth in mouse xenograft model
Type: in vivo, NOD/SCID mice (Mus Musculus)
Source text: Briefly, NOD/SCID mice γ-irradiated with ^60Co (200 rad) (12 animals/group) were inoculated subcutaneously with 8×10^6 OPM-2 cells assisted with Matrigel. Dosing according to the table below started when tumors reached an average size of ˜100 mm^3 (day 15). Dosing continued until the average size of tumors in the vehicle group reached ˜2000 mm^3 (day 31).
Animals were 7 weeks old female NOD/SCID mice (Mus Musculus), supplied by Beijing HFK Bio-Technology Co. Ltd. (Beijing, china). Body weight was approx. 16-23 g. Before commencement of treatment, all animals were weighed and tumor volumes were measured, and mice were assigned into groups using randomized block design based upon their tumor volumes.
OPM-2 tumor cells were maintained in vitro in RPMI1640 medium supplemented with 20% fetal bovine serum at 37° C. in an atmosphere of 5% CO2 in air. The tumor cells were routinely subcultured twice weekly. The cells growing in an exponential growth phase were harvested and counted for tumor inoculation.
Tumor sizes were measured three times weekly in two dimensions using a caliper, and the volume was expressed in mm^3 using the formula: V=0.5 a×b^2 where a and b were the long and short diameters of the tumor, respectively.

CCN(CC)CCCCNCc1cc(/C=N/CCO)ccn1 [Compound 61, 2-[{[2-({[4-(diethylamino)-butyl]amino}-methyl)pyridin-4-yl]methylidene}-amino]ethan-1-ol]
Tumor Volume (BID × 14 i.p. 1 mg/kg, day 15 after inoculation (start of dosing)): 101 ± 12 mm^3 | Tumor Volume (BID × 14 i.p. 1 mg/kg, day 17 after inoculation): 249 ± 32 mm^3 | Tumor Volume (BID × 14 i.p. 1 mg/kg, day 19 after inoculation): 320 ± 45 mm^3 | Tumor Volume (BID × 14 i.p. 1 mg/kg, day 21 after inoculation): 577 ± 85 mm^3 | Tumor Volume (BID × 14 i.p. 1 mg/kg, day 24 after inoculation): 951 ± 124 mm^3 | Tumor Volume (BID × 14 i.p. 1 mg/kg, day 26 after inoculation): 1259 ± 169 mm^3 | Tumor Volume (BID × 14 i.p. 1 mg/kg, day 28 after inoculation): 1800 ± 202 mm^3 | Tumor Volume (BID × 14 i.p. 1 mg/kg, day 31 after inoculation): 2864 ± 334 mm^3 | Tumor Volume (BID × 14 i.p. 10 mg/kg, day 15 after inoculation (start of dosing)): 101 ± 11 mm^3 | Tumor Volume (BID × 14 i.p. 10 mg/kg, day 17 after inoculation): 198 ± 28 mm^3 | Tumor Volume (BID × 14 i.p. 10 mg/kg, day 19 after inoculation): 276 ± 44 mm^3 | Tumor Volume (BID × 14 i.p. 10 mg/kg, day 21 after inoculation): 519 ± 67 mm^3 | Tumor Volume (BID × 14 i.p. 10 mg/kg, day 24 after inoculation): 694 ± 92 mm^3 | Tumor Volume (BID × 14 i.p. 10 mg/kg, day 26 after inoculation): 928 ± 136 mm^3 | Tumor Volume (BID × 14 i.p. 10 mg/kg, day 28 after inoculation): 1289 ± 178 mm^3 | Tumor Volume (BID × 14 i.p. 10 mg/kg, day 31 after inoculation): 1996 ± 302 mm^3 | Tumor Volume (BID × 14 i.p. 20 mg/kg, day 15 after inoculation (start of dosing)): 101 ± 12 mm^3 | Tumor Volume (BID × 14 i.p. 20 mg/kg, day 17 after inoculation): 188 ± 25 mm^3 | Tumor Volume (BID × 14 i.p. 20 mg/kg, day 19 after inoculation): 292 ± 50 mm^3 | Tumor Volume (BID × 14 i.p. 20 mg/kg, day 21 after inoculation): 440 ± 77 mm^3 | Tumor Volume (BID × 14 i.p. 20 mg/kg, day 24 after inoculation): 766 ± 143 mm^3 | Tumor Volume (BID × 14 i.p. 20 mg/kg, day 26 after inoculation): 1029 ± 196 mm^3 | Tumor Volume (BID × 14 i.p. 20 mg/kg, day 28 after inoculation): 1298 ± 236 mm^3 | Tumor Volume (BID × 14 i.p. 20 mg/kg, day 31 after inoculation): 1573 ± 261 mm^3
